The record followed here is patent publication US6566047B1, “Method for identifying neurite-growth promoting agents” (The Regents of the University of Colorado, priority 1998, dated 2003).

One experiment deals with MAT-Lu cells. Description: Pseudopod morphometry (pseudopod length assay), MAT-Lu cells. The following applies: for effect of agent alone on pseudopod length: typically 15 min exposure; for effect of inhibitor pretreatment on AA-induced pseudopod shortening: 15 min pretreatment, indomethacin 10 ηm, NDGA 25 μM, CDC 63 and 126 nM. In kind it is cell-based, rat. How it is done: Pseudopod Morphometry. To study the effects of various agents on pseudopods on a short-term basis, we measured pseudopod lengths. Cells plated in 35-mm diameter dishes at low density (1×10^4 per dish) were incubated overnight, tie medium was changed, and the experiments were run four hours later. First, cultures were shifted to serum-free medium, which was replaced one hour later by serum-free medium with or without the various agents (thrombin, AA or HETEs). Care was taken to avoid heat and light inactivation of the eicosanoids. Culture dishes were placed on a Zeiss inverted microscope equipped with a heated stage and viewed with a 16×phase contrast objective lens. Randomly selected fields of the cultures, containing generally about 20 cells each, were recorded, digitized and stored in the computer at the onset of the experiment and at different times thereafter.
In some cases, individual cells were monitored over different periods of time immediately after introduction of the reagent, either by mixing it into the medium or by applying it locally to one end of the cell. Local application was done with a “puffer” system that expels microliter amounts of the desired solution from a micromanipulator-controlled micropipette tip. Cell morphology was recorded, and the captured images were analyzed with a Power Macintosh computer using NIH Image. Cell process length was measured from the center of the nucleus to the end of the process. Characterization of the frequencies of pseudopod lengths, at a fixed time for each of a sequence of concentrations of reagent, utilized a gamma regression model with an inverse quadratic linear predictor (McCullagh and Nelder, Generalized Linear Models 2d ed., pp. 291-292 (Chapman & Hall, 1989), separately fit to each concentration data set. Although no formal goodness-of-fit tests were carried out, in virtually every case there was good visual representation of the pattern of response (see FIG. 14). Most data, however, are shown as whisker-box plots, where the center point represents the 50%, the ends of the box the […] and 75%, and the “whiskers” the 5% and 95% quantiles (e.g., FIG. 11). Statistical comparisons of pseudopod lengths for different treatments were done by standard non-parametric techniques (Wilcoxon Rank Sum or Kruskal-Wallis Tests), as judged appropriate. Polynomial curve fittings were done by standard least-squares techniques. Statistical analyses and graphing were done with the use of SAS procedures: Reg, Phreg, Nparlway and Plot (SAS institute Inc., Cary, N.C.).

Another experiment has as its system protein kinase C (PKC). Kind of experiment: MARCKS phosphorylation by PKC in isolated GCPs. In kind it is biochemical, rat. Particulars: isolated growth cones. The source says:
FIG. 7A. Thrombin stimulates MARCKS phosphorylation in a 12-LOX-dependent manner. FIG. 7B. 12(S)-HETE stimulates MARCKS phosphorylation by PKC in isolated GCPs. […] Polypeptides were resolved by SDS-PAGE. MARCKS phosphorylation was quantified by phosphorimaging.

The next experiment concerns GCPs plated on laminin. Description: GCP release (detachment) assay on laminin. Set-up: species or system rat. The following applies: 20 min at 37° C., cytochalasin D 1 μM. Here is the method:
GCP Release Assay. Petri dishes (35 mm diameter) were coated with 10 μg mouse laminin in PBS by incubation at room temperature for 60 min with shaking. Dishes were subsequently rinsed three times with PBS to remove unbound laminin and then blocked with 5% non-fat dry milk (Carnation) in PBS for 30 min. After three PBS rinses to remove blocking agent, the dishes were ready for the addition of GCPs. […] After incubation for five min at 37° C. this buffered GCP preparation was added to the laminincoated petri dishes. Contact with the substratum was facilitated by centrifuging the dishes for 15 min at 5000 g (Beckman JS5.2 rotor) at room temperature, followed by incubation at 37° C. to allow adhesion site formation. After 10 min, unattached GCPs were removed by rinsing the dishes twice with 1× modified Krebs buffer. Plated GCPs were then challenged with repellent factor (TRAP or thrombin) for 20 min at 37° C. The supernatant containing released GCPs was collected and centrifuged for protein determination of the pellet. GCPs that remained attached after repellent treatment were removed with 5% sodium dodecyl sulfate (SDS) for protein assay. Protein was measured according to Lowry et al. (1951) as modified by Peterson (1983). Results of these experiments were expressed as the percentage of released versus total GCP protein in the assay.

The next experiment has as its system growth cone PLA2. Description: PLA2 assay in growth cone particles (GCPs). In kind it is biochemical, rat. Particulars: GCPs. How it is done:
Growth Cone Particle (GCP) Isolation. GCPs were prepared as described by Pfenninger et al. (1983) and modified by Lohse et al., Dev. Brain Res., 96:38-96 (1996). Briefly, 18-day fetal brains were homogenized in approximately 8 volumes of 0.32 M sucrose containing 1 mM MgCl2, 2 mM TES buffer, pH 7.3, and 3 μM aprotinin. A low-speed supernatant (1,660 g×15 min) was loaded onto a discontinuous sucrose density gradient With steps of 0.83 M and 2.66 M sucrose containing MgCl2 and TES. The gradients were spun to equilibrium at 242,000 g for 40 min in a vertical rotor (Vti50, Beckman). The GCP fraction at the 0.32/0.83 M sucrose interface was collected and used for the experiments described below.
All assays were run in triplicate.

The subject of experiment [1] is growth cones in cultures of rat cerebral cortex. Kind of experiment: Growth cone collapse assay in cortical neuron culture. In kind it is cell-based. The following applies: for effect of inhibitor pretreatment on thrombin- or TRAP-induced growth cone collapse: CDC 10 μM, indomethacin 25 μM, pretreatment 30-45 min. How it is done: Neuron Culture. Cerebral cortices were dissected from embryonic day 18 Sprague-Dawley rats, cut into explants of less than 1 mm^3 and cultured on either poly-D-lysine-coated coverglass (Assistent) or poly-D-lvsine-coated tissue culture plastic. After 24 hours in B27 neurobasal medium (NB) supplemented with 10% fetal bovine serum, cultures were switched to serum-free B27/NB. The cultures were incubated at 37° C. in 5% CO2 in air. Sprouting neurons were observed readily on day 1. On day 2 or 3, long neurites were present, and the cultures were used for collapse experiments.
Actin Staining. After experimentation, cultures were fixed by slow infusion of fixative (4% paraformaldehyde in 0.1 M phosphate buffer, pH 7.4) into the culture dishes over 10 min (Pfenninger and Maylié-Pfenninger, J. Cell Biol. 89:53-546 (1981)). Thereafter, the fixative was removed by rinsing three times with phosphate-buffered saline (PBS) containing 1 mM glycine. Cultures were then blocked with PBS/1% bovine serum albumin (BSA) and permeabilized by incubation in 0.02% Triton X-100 for 5 min. After three washes in PBS/BSA, cultures were incubated with Texas-Red-conjugated phalloidin for 30 min. Unbound phalloidin was washed away by two PBS rinses, after which the coverglasses were mounted in Slow-Fade Light on microscope slides. Images were recorded on 35 mm film using a Zeiss Axiophot fluorescence microscope equipped with epiillumination.
Growth Cone Collapse Assay. Prior to repellent factor treatment, some of the day 2-3 explant cultures were pre-incubated (at 37° C.) with inhibitor or vehicle control (dimethylsulfoxide or ethanol) for 30-60 min. Cultures were then challenged with a repellent factor or vehicle control for 1-30 min. In some experiments, live cultures were photographed with a Zeiss IM 35 inverted photo microscope equipped with a stage heater, while in others cultures were fixed (as above) after 7 minutes of repellent factor treatment. Growth cone collapse was assessed quantitatively in aldehyde-fixed cultures by grading the degree of collapse in a large number of randomly selected growth cones.

The subject of another experiment is 12-Lox. Description: Eicosanoid (HETE) generation in GCPs. The class given is biochemical, rat. How it is done:
Eicosanoid Assays. Eicosanoid production in GCPs was measured by metabolic labelling from ^14C-AA or ^14C-AA-PC or by mass spectrometric detection. […] To measure Lox activity directly, without PLA2 involvement, ^3H-AA was the substrate of choice. Reactions were stopped by the addition of chloroform/methanol as for the phospholipase assays. Reaction products were extracted as described by Birkle et al., Neuromethods, vol. 7, pp.227-244 (Humana Press, N.J. 1988), spotted on pre-activated si gel 60 TLC plates, and the plates developed in the upper phase of ethyl acetate/isooctane/acetic acid/water (100:60:20:100). AA and HETEs were identified by co-migration with standards. Appropriate bands were counted by liquid scintillation spectrometry.
For mass-spectrometric (MS) identification of HETEs, two different strategies were pursued:
(1) the appropriate bands from non-labelled samples (PC substrate) were scraped from the TLC plate into ether/methanol (9:1) and stored under N2 at −20° C. Authentic 12(S)-HETE, run alongside in the same manner, was used as a standard. Just prior to analysis, samples were passed over an SPE filter to eliminate silica particles, dried under argon, resuspended in 500 μl ethanol, and injected (at 3 μl/min) into a Finnigan LCQ quadrupole ion trap mass spectrometer (Finnigan MAT, San Jose, Calif.) equipped with an electrospray ionization source. All spectra were acquired at a capillary temperature of 80° C., and ion guide voltages were tuned to maximize the abundance of the deprotonated ion species [M-H]^− in negative mode. In order to generate a spectrum, typically 100 single scans were averaged.
(2) For the other strategy (liquid chromatography/tandem MS, LC/MS^2), the reaction substrate consisted of 3.5 μM AA, with the addition of 3.5 μM deuterated AA (AA-D8) plus 1 μCi ^3H-AA to track reaction products by mass and radioactivity, respectively. Reactions were stopped with ice-cold ethanol, the mixtures kept overnight at −20° C. under N2, and the proteins spun out The supernatants were diluted with H2O and loaded onto 1-ml C18 Sep-Pak columns (Varian). After washing with H2O, eicosanoid was eluted with 2 ml methanol. These samples were resolved by reverse-phase HPLC, and the eluted fractions analyzed by tandem MS on-line (MacMillan and Murphy, 1995). Collision-induced decomposition of HETE isomers produced characteristic fragments that were identified at the second MS stage.

Entries after “also recorded” stand apart in the source; their conditions may differ.

Regarding `CCCCC/C=C\C[C@@H](O)/C=C/C=C\C/C=C\CCCC(=O)O` [12(R)-HETE], in the experiment with MAT-Lu cells, the “effect of agent alone on pseudopod length” value (“effect of agent alone” below) is “essentially inactive; also recorded: small reduction in pseudopod length”. In the experiment on protein kinase C (PKC), the “stimulation of MARCKS and GAP43 phosphorylation” value is recorded as “not”.

`CC(=O)C(C)=NO` [BDM, 2,3-butanedione monoxime]: in the experiment with GCPs plated on laminin, the “effect on GCP detachment from laminin” value is listed as “caused considerable release of GCPs by themselves”.

With “insulin: insulin from Collaborative Biomedical Products”, the “activation of growth cone cPLA2/PLA2” value in the experiment with growth cone PLA2 was “failed to stimulate PLA2 significantly”. Also, in the experiment with growth cone PLA2 (Table 3c, substrate PI, BDNF 100, IGF-1 0.75, insulin 1, thrombin 200 nM, control 159 ± 6.2), the “net activity (pmol/min/mg protein)” value came to 158 ± 8.4 pmol/min/mg protein.

As to SFLLRN [TRAP], the “activation of growth cone cPLA2/PLA2” value in the experiment on growth cone PLA2 is “clearly stimulated PLA2, but to a considerably lesser degree”; in the experiment on growth cone PLA2 (listed as TRAPs), “much less effectively”. The “effect on GCP detachment from laminin” value is listed as “mimics the effect” in the experiment on GCPs plated on laminin and “much less effectively” with GCPs plated on laminin (listed as TRAPs). For the same molecule, the “growth cone collapse, agent alone” value in experiment [1] (thrombin 100 nM, TRAP (100 mM), 12(S)-HETE 10^−7 M) is given as “qualitatively the same effect as thrombin, but the change is not as pronounced”.

As for “NGF: growth factor whose receptors are present on GCPs”, the “activation of growth cone cPLA2/PLA2” value in the experiment on growth cone PLA2 is listed as “only weakly or not at all”.

Turning to `CCCCC[C@H](O)/C=C/C=C\C/C=C\C/C=C\CCCC(=O)O` [15(S)-HETE, 15(S)-hydroxyeicosatetraenoic acid], the “effect of agent alone” value in the experiment on MAT-Lu cells is “about as active as 12(S)-HETE; also recorded: reduced pseudopod lengths of MAT-Lu cells in a biphasic manner”.

In the case of `C=C1[C@@H](C)[C@H]2[C@H](Cc3ccccc3)NC(=O)[C@]23[C@H](OC(C)=O)/C=C/[C@@](C)(O)C(=O)[C@@H](C)C/C=C/[C@H]3[C@@H]1O` [cytochalasin D], in the experiment on GCPs plated on laminin, the “effect on GCP detachment from laminin” value is “caused considerable release of GCPs by themselves”.

Regarding `COc1ccc2c(c1)c(CC(=O)O)c(C)n2C(=O)c1ccc(Cl)cc1` [indomethacin], the “effect of inhibitor pretreatment on AA-induced pseudopod shortening” value with MAT-Lu cells was “did not influence the AA effect; also recorded: had no effect at all”. For the same molecule, the “effect of inhibitor pretreatment on thrombin- or TRAP-induced growth cone collapse” value in experiment [1] was “has no effect on control or thrombin treatment of growth cones”. Besides, the “effect of inhibitor on thrombin-stimulated HETE production from AA” value with 12-Lox (3H-AA substrate) was “not”.

For the molecule `CC(Cc1ccc(O)c(O)c1)C(C)Cc1ccc(O)c(O)c1` (stereo not drawn) [NDGA, nordihydroguaiaretic acid], in the experiment on MAT-Lu cells, the “effect of inhibitor pretreatment on AA-induced pseudopod shortening” value is listed as “blocked the AA effect completely; also recorded: inhibited the pseudopod shortening” and the “effect of agent alone” value is “had no effect on pseudopod lengths”. In addition, in experiment [1], the “effect of inhibitor pretreatment on thrombin- or TRAP-induced growth cone collapse” value is given as “protects growth cones from thrombin- or TRAP-induced collapse”. The “effect on conversion of 14C-AA into 12(S)-HETE” value with 12-Lox (60 min, 37° C.) is “blocked”.

Take `CCCCC/C=C\C/C=C\C/C=C\C=C\[C@@H](O)CCCC(=O)O` [5(S)-HETE]: in the experiment with MAT-Lu cells, the “effect of agent alone” value was “essentially inactive; also recorded: had no effect on pseudopod length”.
